In patent US12629415B2, “Vaccine adjuvants” (THE PROVOST, FELLOWS, FOUNDATION SCHOLARS, AND THE OTHER …, priority 2018, dated 2026):
Entries after “also recorded” stand apart in the source; their conditions may differ.

Legend:
bovine PBMCs [1] = experiment: Bovine IFN-γ ELISA on stimulated PBMCs; format: cell-based, cattle; settings: 72 hours; for IFN-γ secretion by ConA stimulated PBMCs from 2 month old calves: ConA 1 μg/ml, polydA:dT 1 μg/ml; for IFN-γ secretion by ConA stimulated bovine PBMCs: calves <1 year old, ConA 1 μg/ml with or without LPS 100 pg/ml; for IFN-γ secretion by PBMCs from neonatal calves, time course: same 5 calves from 1 to 5 months of age, ConA with or without LPS
Protocol: (§1) Bovine peripheral blood mononuclear cells were isolated from whole blood samples collected in 9m1 vacutainers containing Heparin anticoagulant. PBMCs were spun and separated using leucosep tubes (Cruinn) and a density gradient histopaque 1077 (Sigma-Aldrich) at a speed of 1200 g for 20 minutes. Red blood cell contamination was eliminated using sterile 0.25% sodium chloride (Baxter) as a lysis buffer. The cells were subsequently washed twice in PBS at a speed of 600 g for 10 minutes to remove impurities.
(§2) Cells were counted using a haemocytometer, microscope and trypan blue (Sigma Aldrich) and seeded at appropriate densities in tissue culture plates (Cruinn) containing media. The cells were incubated at 37° C. at 5% CO2 treated within hours of plating to avoid unwanted cell death.
When analysing the effects of IL-1β on T cell activation, cells were pre-treated with 250 μg/ml of IL-1 receptor antagonist (IL-1Ra) 40 minutes before stimulation with IL-1β (25 ng/ml). Cells were subsequently stimulated with concanavalin A (1 μg/ml) 1 hour after addition of IL-1β. Similarly, when analysing the effects of polydA:dT on T cell activation, cells were stimulated with polydA:dT (1 μg/ml) 1 hour before ConA treatment (1 μg/ml). LPS (100 pg/ml) primed cells were incubated with YVAD-FMK (10 μm), an inhibitor specific for caspase-1. After 40 minutes, the cells were stimulated with alum (50 μg/ml) for 24 hours and supernatants were then harvested and analysed by ELISA for IL-1β
(§3) Capture antibodies (50 μl/well), diluted in the appropriate buffers, were dispensed into the wells of high binding plates (Greiner Bio-One) and incubated overnight at room temperature or 4° C. For analysis of IL-17, the ELISA plates were pre-coated with capture antibody by the manufacturing before delivery. The wells were washed with PBS/Tween 3 times and the plates were then incubated with 150 μl of blocking buffer for 1 hour at room temperature. The plates were washed again before supernatant (neat or diluted) and recombinant standards were added for 1 hour at room temperature. Following this, the plates were washed and 50 μl of detection antibody was added to the wells for a period of 1 or 2 hours at room temperature. After washing, 50 μl diluted streptavidin-HRP was added to the plate for between 30 minutes and 1 hour. After the final wash, 50 μl of 3,3′-, 5,5′-Tetramethylbenzidine (TMB) substrate was added and the plates were incubated in the dark. The reaction was stopped by addition of 1M sulphuric acid and the absorbance readings were measured at 450 nm using a microtitre plate reader. The cytokine concentrations were calculated using a linear regression standard curve from recombinant cytokines of known concentration. Skanit™ software was used to estimate values.

[2] = system: adult PBMCs or neonatal CBMCs; experiment: HEK-Blue IFNα/β SEAP assay on supernatants of stimulated mononuclear cells; format: cell-based, human
Protocol: Isolation of mononuclear cells and monocytes—Primary PBMCs or CBMCs were isolated from healthy human blood or cord blood. Monocytes were isolated by negative selection using Monocyte Isolation Kit II (Miltenyi). […] Cells were cultured at 37° C., 5% CO2, 95% air in RPMI-1640, with stable 2.5 mM L-glutamine and 0.5 mM sodium pyruvate with 10% FBS (all from Sigma-Aldrich).
(§4) Poly(I:C) (5 μg/ml) (Invivogen), Poly(dA:dT) (5 μg/ml) (Sigma-Aldrich), 2′3′ cGAMP (10 μg/ml), 5′ triphosphate double stranded RNA (5′ ppp dsRNA) (2.5 μg/ml) and HSV-60 (2 μg/ml) (all from Invivogen) were transfected into PBMCs or CBMCs using TransIT-X2 (Mirus).
(§5) Measurement of cytokines—HEK Blue TNFα/IFNα/β Assays were performed as per the manufacturer's (Invivogen) instructions using Quanti-Blue Detection Reagent. SEAP levels were determined using a spectrophotometer plate reader at 630 nm. IFNα (3425-1H-6, Mabtech) and IP-10 (DY266, R&D Systems) were detected by sandwich ELISA. IFNα ELISA used pan specific IFNα antibodies, which allows detection of IFNα subtypes 1/13, 2, 4, 5, 6, 7, 8, 10, 14, 16 and 17. BioLegend LEGENDplex™ Human Inflammation Panel (13-plex) was carried out as per manufacturer's (Biolegend) instructions to determine levels of IFNγ, IL-10, IL-12p70 and IL-23. A BD LSR Fortessa cell analyser was used to acquire samples and BioLegend LEGENDplex™ software was used for analysis.

bovine PBMCs [3] = experiment: Western blot of pro-IL-1β in bovine PBMC lysates; format: cell-based, cattle
Protocol: Supernatants were collected after 24 hours and IL-1β was detected by ELISA. Human PBMCs were stimulated for 24 hours with polydA:dT (5 μg/ml, 2 μg/ml or 1 μg/ml) or alum (50 μg/ml) alone or with LPS (100 pg/ml) (C & D). Supernatants were collected and IL-1β was detected by ELISA. […] Cell lysates were harvested and pro-IL-1β was detected by western blot. PBMCs were stimulated with media or polydA:dT (1 μg/ml) for 6 hours. Cells were lysed and RNA was harvested and used for analysis by RT-PCR (F). Results are mean+/− SEM for 6 calves tested individually in triplicate. For human analysis, results are mean+/− SEM for 6 humans tested individually in triplicate The PPIA gene was used for normalization of gene expression.

bovine PBMCs [4] = experiment: Bovine IL-1β ELISA on stimulated PBMCs; format: cell-based, cattle; settings: for IL-1β secretion by bovine PBMCs in the absence of LPS priming: polydA:dT 5, 2 or 1 μg/ml or alum 50 μg/ml
Protocol: as §1, §2
[…] This concentration was selected after testing effects of a range of different LPS concentrations ranging from 1 pg/ml-1 μg/ml. […] Similar to LPS, adjuvant concentrations were selected after testing multiple different doses. After stimulation, the cells were cultured for an additional 24 hours. Supernatants were harvested and stored at −20° C. for further analysis.
as §3

PBMCs or CBMCs = experiment: IFNα sandwich ELISA on supernatants; format: cell-based, human; settings: CBMCs compared with PBMCs; 8 or 24 h
Protocol: as §4, §5

## poly(deoxyadenylic-thymidylic) acid [Poly(dA:dT)]
Bovine PBMCs [1]; listed as PolydA:dT
  IFN-γ secretion by ConA stimulated PBMCs from 2 month old calves: drives enhanced IFN-γ secretion in calves aged <1 year old
  IFN-γ secretion by PBMCs from neonatal calves, time course: drives enhanced IFN-γ by cells from neonatal calves
Bovine PBMCs [1]; listed as poly(dA:dT)
  IFN-γ secretion by ConA stimulated PBMCs from 2 month old calves: strongly enhanced IFN-γ production
Bovine PBMCs [1]
  IFN-γ secretion by ConA stimulated bovine PBMCs: promotes type 1 interferon dependent enhancement of interferon gamma production in PBMCs
Bovine PBMCs [1]; listed as Poly (deoxyadenylic-thymidylic) acid
  IFN-γ secretion by ConA stimulated bovine PBMCs: promotes type 1 interferon dependent enhancement of interferon gamma production in PBMCs
Bovine PBMCs [1]; listed as poly (dA:dT)
  IFN-γ secretion by ConA stimulated bovine PBMCs: strongly enhanced IFN-γ production by PBMCs from adult (8 months old) animals
Bovine PBMCs [1]; listed as polydA:dT
  IFN-γ secretion by ConA stimulated bovine PBMCs: increase in IFN-γ secretion; also recorded: increased capacity to secrete IFN-γ in response to polydA:dT, although the difference was only significant when cells were primed with LPS
  IFN-γ secretion by PBMCs from neonatal calves, time course: overcomes the deficiency in interferon gamma production in neonatal cattle; also recorded: significantly enhanced in response to polydA:dT; also recorded: most evident in the first 2 months of life after which the enhancement was not statistically significant; also recorded: significant increase in IFN-γ secretion at 1 and 2 months in the presence or absence of LPS; also recorded: ability to drive enhanced IFN-γ from PBMCs of calves aged 1-2 months
[2]; compared with adult blood, summary statement
  innate immune response in neonatal and/or paediatric blood: robust innate immune response in neonatal and/or paediatric blood
[2]; neonatal CBMCs compared with adult PBMCs, stimulation 4, 8 or 24 h
  type I IFN (IFNα/β) production: no inhibition of type I IFN production in CBMCs when compared to PBMCs
Bovine PBMCs [3]; 6 hours, data not shown
  pro-IL-1β expression: enhances pro-IL-1β expression after 6 hours
Bovine PBMCs [3]; 16 hours, with or without LPS 100 pg/ml
  pro-IL-1β (western blot): pro-IL-1β was evidently expressed in cells stimulated with polydA:dT in the absence of LPS
Bovine PBMCs [4]
  IL-1β secretion by bovine cells (priming not given): enhanced by polydA:dT; also recorded: enhanced IL-1β secretion from bovine cells; also recorded: enhances IL-1β secretion in a NLRP3 independent manner; also recorded: robust driver of IL-1β secretion and IL-18 expression in cattle
Bovine PBMCs [4]; 5 neonatal calves, 24 hours
  IL-1β secretion by PBMCs from 1 month old calves following LPS priming: PBMCs from all 5 neonates secreted IL-1β
  IL-1β secretion by PBMCs from neonatal (1 month old) calves in the absence of LPS priming: can secrete IL-1β in response to polydA:dT without LPS priming; also recorded: secreted processed IL-1β following polydA:dT stimulation
Bovine PBMCs [4]; LPS 100 pg/ml, polydA:dT 5, 2 or 1 μg/ml, 24 hours
  IL-1β secretion by bovine PBMCs primed with LPS: secreted IL-1β when stimulated with polydA:dT at various concentrations
Bovine PBMCs [4]; absence or presence of LPS, 24 hours
  IL-1β secretion by PBMCs from calves at 2 months of age: processed IL-1β was present in supernatants
Bovine PBMCs [4]; bovine PBMCs, 24 hours
  IL-1β concentrations, presence versus absence of LPS: no significant difference in IL-1β concentrations
Bovine PBMCs [4]; 24 hours, listed as PolydA:dT
  IL-1β secretion by bovine PBMCs in the absence of LPS priming: capable of driving IL-1β secretion in the absence of priming with LPS
Bovine PBMCs [4]; 24 hours, listed as polydA:dT
  IL-1β secretion by bovine PBMCs in the absence of LPS priming: all calves secreted processed IL-1β
PBMCs or CBMCs
  IFNα secretion (ELISA): equivalent or enhanced CNA sensor responses in neonates compared to adults
